What was measured:
TrkA [1] = target: T1, TrkA (Homo sapiens (Human), UniProt P04629); assay: TrkA kinase-inhibiting activity using human TrkA expressing cells (CellSenser TrkA-NFAT-bla CHO-K1, NGF-stimulated reporter assay); format: cell-based; settings: CHO-K1 cells expressing human TrkA and NFAT-bla; NGF 50 ng/ml; read-out: TrkA inhibitory activity (IC50; μM)
Protocol: TrkA kinase-inhibiting activity in cell systems was measured using CHO-K1 cells expressing human TrkA and NFAT-bla (CellSenser™ TrkA-NFAT-bla CHO-K1 cells, Invitrogen).
On the day before the assay, CellSenser™ TrkA-NFAT-bla CHO-K1 cells were suspended in an assay medium (Opti-MEM1 Reduced Serum Medium (Invitrogen) containing 0.5% dialysed fetal bovine serum (Invitrogen), 0.1 mM nonessential amino acids (Invitrogen), 1 mM sodium pyruvate (Invitrogen) and antibiotics (100 U/mL penicillin and 100 μg/mL streptomycin (Invitrogen)) and plated at a density of 2.4×10^4 cells/40 μL/well in a 96-well clear bottom plate (Corning, Catalogue No.: 3882). In some wells were added only the assay medium at 40 μL/well (Cell-free). On the day of the assay, 10 mM of the present compound (DMSO solution) was distributed in a 96-well plate (Costar, Catalogue No.: 3363) and serially diluted with DMSO with the geometrical ratio of 3. The serial dilutions were diluted with the assay medium to 100-fold to prepare a solution of the present compound with a 10-times concentration (DMSO concentration: 1%). To the plate where cells were plated was added the present compound at 5 μL/well and the plate was incubated in a CO2 incubator with 5% CO2, 95% Air at 37° C. for 30 minutes. For a control and a blank, the assay medium containing 1% DMSO was added at 5 μL/well in place of the solution of the present compound. Subsequently the assay medium containing NGF (Mouse 2.5s, Natural, Invitrogen) was added to the plate at 5 µL/well (final concentration of NGF: 50 ng/ml) and the plate was incubated in a CO2 incubator with 5% CO2, 95% Air at 37° C. for 5 hours. For a group of blanks, the assay medium was added in place of NGF at 5 μL/well. A reporter assay detection reagent (10 μL/well) was added to the plate and the plate was then incubated in the dark at room temperature for 120 minutes. The reporter assay detection reagent was prepared from LiveBLAzer™-FRET B/G Loading Kit (Invitrogen). On an Analyst GT (Molecular Devices Japan, K.K.) the wells were irradiated with excitation light at 405 nm and the fluorescence intensities at 460 nm and 530 nm were measured. The time resolved fluorescence resonance energy transfer (TR-FRET) ratio of each well was calculated according to the following Equation 2. TR-FRET Ratio=(A460X−A460F)/(A530X−A530F) Equation 2
wherein A460X: the fluorescence intensity at 460 nm of the present compound, control or blank;
A460F: the fluorescence intensity at 460 nm of the Cell-free;
A530X: the fluorescence intensity at 530 nm of the present compound, control or blank; and
A530F: the fluorescence intensity at 530 nm of the Cell-free. […]
The IC50 value of the present compound was calculated from the inhibition curve based on the inhibition rate of the present compound at respective concentrations.

[2] = system: NGF-induced vascular hyper permeability; assay: Suppression of rat NGF-induced vascular hyper permeability (in vivo test, Evans Blue); settings: oral, 12 hours after administration, read-out: Rates of Suppression for Vascular Hyper Permeability (%)
Protocol: TrkA-inhibiting activity of the present compound was evaluated in vivo. The present compound dissolved in a medium was orally administered (adminstered volume: 5 mL/kg) to male CD(SD)IGS rats (7- to 9-week old, Charles River laboratories Japan, Inc.) shaved on the back. A medium was orally administered (adminstered volume: 5 mL/kg) to the control and normal groups. After 6 or 12 hours of administration, 3 μg/mL of a NGF (Mouse 2.5s, Natural, Invitrogen) solution prepared in 0.1% BSA (Sigma-Aldrich)-containing saline was intracutaneously administered (dose; 50 μL/site) at 3 sites on the back of animals under halothane anesthesia. For the normal group, 0.1% BSA-containing saline was intracutaneously administered (dose; 50 μL/site) at 3 sites on the back. Immediately after intracutaneous administration, 1% Evans Blue (Tokyo Chemical Industry Co., Ltd.) was administered intravenously from tail (adminstered volume: 3 mL/kg). After 10 minutes of administration, the animals were sacrificed by bleeding due to incision of the abdominal aorta. The sites of intracutaneous administration on the back (3 sites) were excised and the skin samples were respectively transferred to the wells in a 48-well plate (Asahi Glass Co., Ltd.). Formamide (0.8 mL/well) was added to the plate and the plate was sealed and incubated overnight at 60° C. The formamide extraction solution (200 μL) was transferred to a 96-well plate and the absorbance (wavelength: 620 nm) of Evans Blue extracted in formamide was measured on an absorbance microplate reader (SpectraMAX 190, Molecular Devices Japan, K.K.). Standard samples of Evans Blue dissolved in formamide (0, 0.78, 1.56, 3.13, 6.25, 12.5, 25 and 50 μg/mL) were measured at the same time for the absorbance (wavelength: 620 nm) to generate a calibration curve. Based on the calibration curve and the absorbances of samples, the concentrations of Evans Blue in the sample was calculated. The concentrations of Evans Blue for three skin samples collected from one aminal were averaged to obtain the vale for the animal. The rate of suppression for rat NGF-induced vascular hyper permeability of the present compound was calculated according to the following Equation 4: Suppression rate (%)=(1−(AX−AN)/(AC−AN)}×100 Equation 4
wherein AX: the concentration of Evans Blue of the test compound (an average value of 3 samples from one animal);
AN: the concentration of Evans Blue of the normal group (an average value of 3 samples from one animal);
AC: the concentration of Evans Blue of the control group (an average value of 3 samples from one animal).

TrkA [3] = target: T1, TrkA; assay: Measurement of TrkA enzyme-inhibiting activity (LanthaScreen TR-FRET kinase assay); format: biochemical; settings: final ATP 150 μM, read-out: TrkA inhibitory activity (IC50; μM)
Protocol: TrkA-inhibiting activity was measured according to the following method using LanthaScreen™ kinase assay reagents (Invitrogen; Fluorescein-Poly GT, LanthaScreen™ Tb-PY20 and TR-FRET Dilution Buffer), TrkA (Invitrogen), ATP (Sigma-Aldrich), a kinase reaction buffer (50 mM HEPES buffer (Sigma-Aldrich) (pH 7.5) containing 0.01% Brij35 (Sigma-Aldrich), 10 mM MgCl2 (Sigma-Aldrich) and 1 mM EGTA (Sigma-Aldrich)) and 0.5 M EDTA (pH 8.0) (Invitrogen).
The present compound was dissolved in dimethylsulfoxide (hereinafter abbreviated as DMSO) to prepare a 10 mM solution. The test compound at 10 mM was distributed into a 96-well plate and serially diluted with DMSO with the geometrical ratio of 3. The serial dilutions (DMSO solutions) were diluted with the kinase reaction buffer to 20-fold to prepare solutions of the present compound with 5-times concentrations (DMSO concentration: 5%). TrkA was diluted with the kinase reaction buffer to prepare a solution at 38.5 ng/mL (enzyme solution). Adenosine triphosphate (hereinafter abbreviated as ATP) was preliminarily diluted in distilled water to prepare a 10 mM solution which was then divided into containers and stored at −20° C. The 10 mM ATP solution and Fluorescein-Poly GT were diluted in the kinase reaction buffer to prepare a solution containing […] of ATP and 500 nM of Fluorescein-Poly GT (ATP-substrate solution). EDTA (0.5 M; pH 8.0) and LanthaScreen™ Tb-PY20 were diluted in the TR-FRET Dilution Buffer to prepare a solution containing 20 mM of EDTA and 4 nM of LanthaScreen™ Tb-PY20 (detection buffer).
The solutions of the present compound (5 μL/well) and the enzyme solution (10 μL/well) were added to a 96-half well assay plate and the plate was shaken at room temperature for 10 minutes on a plate shaker (IKA™ MTS2/4 digital microplate, IKA Japan K.K.). As a control and a blank, the kinase reaction buffer containing 5% DMSO (5 μL/well) was added in place of the solution of the present compound. As a blank, the kinase reaction buffer (10 μL/well) was added in the place of the enzyme solution. The ATP-substrate solution (10 μL/well) was then added to the plate to initiate kinase reaction and the plate was shaken in the dark at room temperature for 1 hour on the plate shaker (final concentration of TrkA: 15.4 ng/mL, final concentration of the substrate: 200 nM and final concentration of ATP: 150 μM). Kinase reaction was terminated by adding the detection buffer (25 μL/well) to the plate and the plate was shaken in the dark at room temperature for 30 minutes on the plate shaker. On an Analyst GT (Molecular Devices Japan, K.K.) the wells were irradiated with excitation light at 340 nm and the fluorescence intensities at 520 nm and 495 nm were measured. The fluorescence intensity at 520 nm for each well was divided by the fluorescence intensity at 495 nm to calculate the time resolved fluorescence resonance energy transfer (TR-FRET) ratio.
The inhibition rate (%) of the present compound was calculated according to the following Equation 1: Inhibition rate (%)={1−(AX−AB)/(AC−AB)×100 Equation 1
wherein AX: the TR-FRET ratio when the present compound is added;
AB: the TR-FRET of the blank; and
AC: the TR-FRET of the control.
The value for 50% inhibition by the present compound (IC50 value) was calculated from the inhibition curve based on the inhibition rate of the present compound at respective concentrations.

T1 sequence (P04629 33-796): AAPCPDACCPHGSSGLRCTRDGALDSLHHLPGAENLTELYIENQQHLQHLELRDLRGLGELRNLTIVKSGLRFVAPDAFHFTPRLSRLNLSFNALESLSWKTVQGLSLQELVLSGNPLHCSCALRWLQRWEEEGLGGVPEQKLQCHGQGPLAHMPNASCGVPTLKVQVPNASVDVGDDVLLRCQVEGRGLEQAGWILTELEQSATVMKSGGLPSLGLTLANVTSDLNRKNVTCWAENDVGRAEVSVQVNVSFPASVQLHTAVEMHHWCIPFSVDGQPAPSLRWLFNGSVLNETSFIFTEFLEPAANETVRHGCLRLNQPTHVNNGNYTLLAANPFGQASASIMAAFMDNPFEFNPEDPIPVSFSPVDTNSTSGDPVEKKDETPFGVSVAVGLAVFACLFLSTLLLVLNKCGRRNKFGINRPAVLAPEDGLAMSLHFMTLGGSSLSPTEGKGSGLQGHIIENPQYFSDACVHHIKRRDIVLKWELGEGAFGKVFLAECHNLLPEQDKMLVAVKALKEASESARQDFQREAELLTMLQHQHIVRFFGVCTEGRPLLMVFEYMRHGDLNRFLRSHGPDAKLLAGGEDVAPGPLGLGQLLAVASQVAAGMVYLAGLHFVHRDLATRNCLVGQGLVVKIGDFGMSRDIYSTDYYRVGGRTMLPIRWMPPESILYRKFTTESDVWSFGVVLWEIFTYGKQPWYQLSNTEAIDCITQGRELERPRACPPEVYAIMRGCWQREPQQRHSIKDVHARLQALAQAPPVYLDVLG

Compound	IC50 (TrkA [1])	inhibition in vivo at 1 mg/kg [2]	IC50 (TrkA [3])
CCCNc1ncc(-c2ccc(Oc3ncc(NC(=O)Nc4cc(C(F)(F)F)ccc4S(=O)(=O)N(C)C)cn3)cc2)s1 [Example 85-225, N,N-dimethyl-2-{[(2-{4-[2-(propylamino)-1,3-thiazol-5-yl]phenoxy}-5-pyrimidinyl)carbamoyl]amino}-4-(trifluoromethyl)benzenesulfonamide]	0.004 µM	94%	
CCCNc1ncc(-c2ccc(Oc3ncc(NC(=O)Nc4cc(C(F)(F)F)ccc4S(C)(=O)=O)cn3)cc2)s1 [Example 85-226, 1-[2-(methylsulfonyl)-5-(trifluoromethyl)phenyl]-3-(2-{4-[2-(propylamino)-1,3-thiazol-5-yl]phenoxy}-5-pyrimidinyl)urea]	0.001 µM	100%	
CCCNc1ncc(-c2ccc(Oc3ncc(NC(=O)Nc4cc(F)ccc4F)cn3)cc2)s1 [Example 85-209, 1-(2,5-difluorophenyl)-3-(2-{4-[2-(propylamino)-1,3-thiazol-5-yl]phenoxy}-5-pyrimidinyl)urea]	0.004 µM	81%	
COC(=O)c1cccc(-n2nc(C(C)(C)C)cc2NC(=O)Nc2cnc(Oc3ccc(-c4cnc(N5CCCC5=O)s4)cc3)nc2)c1 [Example 66-27, Methyl 3-[3-(2-methyl-2-propanyl)-5-{[(2-{4-[2-(2-oxo-1-pyrrolidinyl)-1,3-thiazol-5-yl]phenoxy}-5-pyrimidinyl)carbamoyl]amino}-1H-pyrazol-1-yl]benzoate]	0.01 µM		0.13 µM
CCCNc1ncc(-c2ccc(Oc3ncc(NC(=O)Nc4cc(C(F)(F)F)ccc4-n4ccc(C(F)(F)F)n4)cn3)cc2)s1 [Example 85-184, 1-(2-{4-[2-(propylamino)-1,3-thiazol-5-yl]phenoxy}-5-pyrimidinyl)-3-{5-(trifluoromethyl)-2-[3-(trifluoromethyl)-1H-pyrazol-1-yl]phenyl}urea]	0.002 µM	96%	
CC(=O)Nc1ccc(-n2nc(C(C)(C)C)cc2NC(=O)Nc2cnc(Oc3ccc(-c4cnc(N5CCCC5=O)s4)cc3)nc2)cc1 [Example 66-28, N-{4-[3-(2-methyl-2-propanyl)-5-{[(2-{4-[2-(2-oxo-1-pyrrolidinyl)-1,3-thiazol-5-yl]phenoxy}-5-pyrimidinyl)carbamoyl]amino}-1H-pyrazol-1-yl]phenyl}acetamide]	0.014 µM		0.08 µM
CC(C)(C)c1cc(NC(=O)Nc2cnc(Oc3ccc(-c4cnc(N5CCCC5=O)s4)cc3)nc2)n(-c2ccc(S(N)(=O)=O)cc2)n1 [Example 66-72, 4-[3-(2-methyl-2-propanyl)-5-{[(2-{4-[2-(2-oxo-1-pyrrolidinyl)-1,3-thiazol-5-yl]phenoxy}-5-pyrimidinyl)carbamoyl]amino}-1H-pyrazol-1-yl]benzenesulfonamide]	0.032 µM		0.05 µM
Cc1ccc(-c2ncc(C(F)(F)F)cc2NC(=O)Nc2cnc(Oc3ccc(-c4cnc(N5CCCCCC5=O)s4)cc3)nc2)cc1C [Example 59, 1-[2-(3,4-dimethylphenyl)-5-(trifluoromethyl)-3-pyridinyl]-3-(2-{4-[2-(2-oxo-1-azepanyl)-1,3-thiazol-5-yl]phenoxy}-5-pyrimidinyl)urea]	0.07 µM		0.19 µM

Source: patent US9242977B2, “Trk-inhibiting compound” (ONO PHARMACEUTICAL CO., LTD., priority 2012, dated 2016)
